Data reported in US7947830B2, “Substituted propenyl piperazine derivatives as novel inhibitors of histone deacetylase” (Janssen Pharmaceutica N.V., priority 2004, dated 2011).
Values after ≈ are worked out from the molar mass of the structure shown.

Legend:
[1] = biological target: histone deacetylase (HeLa nuclear extracts); assay: In vitro assay for inhibition of histone deacetylase (HDAC Fluorescent Activity Assay, Fluor de Lys); assay type: biochemical; conditions: Fluor de Lys substrate
Text: The in vitro assay for inhibition of histone deacetylase (see example C.1) measures the inhibition of HDAC enzymatic activity obtained with the compounds of formula (I).
The HDAC Fluorescent Activity Assay/Drug Discovery Kit of Biomol (cat.No: AK-500-0001) was used. The HDAC Fluorescent Activity Assay is based on the Fluor de Lys (Fluorogenic […] deAcetylase Lysyl) substrate and developer combination. The Fluor de Lys substrate, comprises an acetylated lysine side chain. Deacetylation of the substrate sensitizes the substrate so that, in the second step, treatment with the Fluor de Lys developer produces a fluorophore.
After 30 min, 1 volume of the developer was added. […] For each experiment, controls (containing HeLa nuclear extract and buffer), a blank incubation (containing buffer but no HeLa nuclear extract) and samples (containing compound dissolved in DMSO and further diluted in buffer and HeLa nuclear extract) were run in parallel. […] All sample were tested 4 times. In each test the blank value was substracted from both the control and the sample values. The control sample represented 100% of substrate deactylation. For each sample the fluorescence was expressed as a percentage of the mean value of the controls. […] Herein the effects of test compounds are expressed as pIC50 (the negative log value of the IC50-value) (see Table F-3).

[2] = tested on: A2780 ovarian carcinoma cells; assay: Antiproliferative activity on A2780 cells (MTT); assay type: cell-based, human; conditions: four days of incubation; for IC50: Homo sapiens, A2780, 96 h, read-out: Cellular activity pIC50 C.2. (converted)
Description: Cellular activity of the compounds of formula (I) was determined on A2780 tumour cells using a […] assay for cell toxicity or survival (Mosmann Tim, Journal of Immunological Methods 65: 55-63, 1983)(see example C.2).
All compounds tested were dissolved in DMSO and further dilutions were made in culture medium. Final DMSO concentrations never exceeded 0.1% (v/v) in cell proliferation assays. Controls contained A2780 cells and DMSO without compound and blanks contained DMSO but no cells. MTT was dissolved at 5 mg/ml in PBS. A glycine buffer comprised of 0.1 M glycine and 0.1 M NaCl buffered to pH 10.5 with NaOH (1 N) was prepared (all reagents were from Merck).
The human A2780 ovarian carcinoma cells (a kind gift from Dr. T. C. Hamilton [Fox Chase Cancer Centre, Pennsylvania, USA]) were cultured in RPMI 1640 medium supplemented with 2 mM L-glutamine, 50 μg/ml gentamicin and 10% fetal calf serum.
Cells were routinely kept as monolayer cultures at 37° C. in a humidified 5% CO2 atmosphere. Cells were passaged once a week using a trypsin/EDTA solution at a split ratio of 1:40. All media and supplements were obtained from Life Technologies. Cells were free of mycoplasma contamination as determined using the Gen-Probe Mycoplasma Tissue Culture kit (supplier: BioMérieux).
Cells were seeded in NUNC™ 96-well culture plates (Supplier: Life Technologies) and allowed to adhere to the plastic overnight. Densities used for plating were 1500 cells per well in a total volume of 200 μl medium. After cell adhesion to the plates, medium was changed and drugs and/or solvents were added to a final volume of 200 μl. Following four days of incubation, medium was replaced by 200 μl fresh medium and cell density and viability was assessed using an MTT-based assay. To each well, 25 μl […] solution was added and the cells were further incubated for 2 hours at 37° C. The medium was then carefully aspirated and the blue MTT-formazan product was solubilized by addition of 25 μl glycine buffer followed by 100 μl of DMSO. […] Within an experiment, the results for each experimental condition are the mean of 3 replicate wells. For initial screening purposes, compounds were tested at a single fixed concentration of 10^−6 M. For active compounds, the experiments were repeated to establish full concentration-response curves. For each experiment, controls (containing no drug) and a blank incubation (containing no cells or drugs) were run in parallel. The blank value was subtracted from all control and sample values. For each sample, the mean value for cell growth (in absorbance units) was expressed as a percentage of the mean value for cell growth of the control. […] Herein the effects of test compounds are expressed as pIC50 (the negative log value of the IC50-value)(see Table F-3).

[3] = Solubility at different pH's, chemiluminescent nitrogen detector (C.3.b); assay type: physicochemical; conditions: for solubility: pH 2.3, aqueous buffer, read-out: Solubility C.3.b. pH = 2.3 mg/ml
Text: In a second method the solubility of a compound at different pH's can be measured with the use of a chemiluminescent nitrogen detector (see example C.3.b).
The solubility of a compound, at different pH's, can also be measured with the use of a cherniluminescent nitrogen detector (see Table F-3).

[4] = Kinetic solubility in aqueous media (nephelometer, C.3.a); assay type: physicochemical; conditions: aqueous buffer, kinetic from dmso stock; score; phosphate citrate buffer pH 7.4, turbidity
Description: The solubility of a compound measures the ability of a compound to stay in solution. In a first method the ability of a compound to stay in aqueous solution upon dilution (see example C.3.a) is measured. DMSO-stock solutions are diluted with a single aqueous buffer solvent in 3 consecutive steps. For every dilution turbidity is measured with a nephelometer.
In the first dilution step, 10 μl of a concentrated stock-solution of the active compound, solubilized in DMSO (5 mM), was added to 100 μl phosphate citrate buffer pH 7.4 and mixed. In the second dilution step, an aliquot (20 μl) of the first dilution step was further dispensed in 100 μl phosphate citrate buffer pH 7.4 and mixed. Finally, in the third dilution step, a sample (20 μl) of the second dilution step was further diluted in 100 μl phosphate citrate buffer pH 7.4 and mixed. All dilutions were performed in 96-well plates. Immediately after the last dilution step the turbidity of the three consecutive dilution steps were measured with a nephelometer. Dilution was done in triplicate for each compound to exclude occasional errors. Based on the turbidity measurements a ranking is performed into 3 classes. Compounds with high solubility obtained a score of 3 and for this compounds the first dilution is clear. Compounds with medium solubility obtained a score of 2. For these compounds the first dilution is unclear and the second dilution is clear.

| Enzymatic activity pIC50 C.1. [1] | IC50 [2] [nM] | solubility [3] [µg/mL] | melting point [°C] | Cellular activity pIC50 C.2. [2] | solubility [4] [µM] | Solubility C.3.b. pH = 2.3 mg/ml [3] [mg/ml] | SMILES |
| --- | --- | --- | --- | --- | --- | --- | --- |
| 8.5 | 100 | 3600 (≈ 7.94 mM) | – | – | – | – | CN(C)CCNC(=O)C(/C=C/c1ccccc1)N1CCN(c2ncc(C(=O)NO)cn2)CC1 (stereo not drawn) [Compound 18] |
| – | – | – | 146 | – | – | – | CN(C)C(=O)C(C)(/C=C/c1ccc(F)cc1)N1CCN(c2ncc(C(=O)NO)cn2)CC1 (stereo not drawn) (hydrate or solvate) [Compound 10] |
| – | – | – | – | 8.2 | – | – | O=C(NO)c1cnc(N2CCN([C@@H](/C=C/c3ccc(F)cc3)CO)CC2)nc1 (single isomer, unassigned) [Compound 33] |
| 7.9 | – | 3400 (≈ 9.2 mM) | – | 7.6 | – | – | O=C(NO)c1cnc(N2CCN([C@@H](/C=C/c3ccccc3)CO)CC2)nc1 (single isomer, unassigned) [Compound 25] |
| 7.6 | 39.8 | – | – | – | > 455 | – | O=C(NO)c1cnc(N2CCN(C(/C=C/c3ccc(C(F)(F)F)cc3)CO)CC2)nc1 (stereo not drawn) [Compound 6] |
| 7.9 | 39.8 | – | – | – | < 76 | – | O=C(NO)c1cnc(N2CCN(C(/C=C/c3ccc(-c4ccccc4)cc3)CO)CC2)nc1 (stereo not drawn) [Compound 5] |
| 8.4 | 31.6 | 3000 (≈ 6.78 mM) | – | – | – | – | CN(C)C(=O)C(C)(/C=C/c1ccc(F)cc1)N1CCN(c2ncc(C(=O)NO)cn2)CC1 (stereo not drawn) [Compound 10] |
| 8.1 | 31.6 | – | – | – | > 455 | – | COc1ccc(/C=C/C(CO)N2CCN(c3ncc(C(=O)NO)cn3)CC2)cc1 (stereo not drawn) [Compound 3] |
| 7.4 | 79.4 | 2800 (≈ 7.06 mM) | – | – | – | – | CNC(=O)C(/C=C/c1ccccc1)N1CCN(c2ncc(C(=O)NO)cn2)CC1 (stereo not drawn) [Compound 16] |
| 8.8 | 200 | 2200 (≈ 4.86 mM) | – | – | – | – | O=C(NO)c1cnc(N2CCN(C(/C=C/c3ccccc3)C(=O)N3CCOCC3)CC2)nc1 (stereo not drawn) [Compound 17] |
| 8.5 | 39.8 | 2800 (≈ 6.13 mM) | – | – | – | – | CCN(C)C(=O)C(C)(/C=C/c1ccc(F)cc1)N1CCN(c2ncc(C(=O)NO)cn2)CC1 (stereo not drawn) [Compound 14] |
| 8.8 | 100 | 3700 (≈ 7.93 mM) | – | – | – | – | CC(/C=C/c1ccccc1)(C(=O)N1CCOCC1)N1CCN(c2ncc(C(=O)NO)cn2)CC1 (stereo not drawn) [Compound 13] |
| – | – | – | – | 7.5 | – | – | O=C(NO)c1cnc(N2CCN([C@@H](/C=C/c3ccc(F)cc3)CO)CC2)nc1 (single isomer, unassigned) [Compound 27] |
| 8.3 | – | – | – | 7.2 | – | 3.5 | O=C(NO)c1cnc(N2CCN([C@@H](/C=C/c3ccccc3)CO)CC2)nc1 (single isomer, unassigned) [Compound 26] |
| 7.9 | 158 | 4200 (≈ 9.3 mM) | – | – | – | – | CN1CCN(CC(/C=C/c2ccccc2)N2CCN(c3ncc(C(=O)NO)cn3)CC2)CC1 (stereo not drawn) [Compound 22] |
| 8.0 | 251 | – | – | – | – | – | O=C(NO)c1cnc(N2CCN(C(/C=C/c3ccccc3)Cn3ccnc3)CC2)nc1 (stereo not drawn) [Compound 23] |

| Enzymatic activity pIC50 C.1. [1] | IC50 [2] [nM] | solubility [3] [µg/mL] | melting point [°C] | Cellular activity pIC50 C.2. [2] | solubility [4] [µM] | Solubility C.3.b. pH = 2.3 mg/ml [3] [mg/ml] | SMILES |
| --- | --- | --- | --- | --- | --- | --- | --- |
| 8.4 | 501 | 2600 (≈ 6.1 mM) | – | – | – | – | O=C(NO)c1cnc(N2CCN(C(/C=C/c3ccccc3)C(=O)NCCO)CC2)nc1 (stereo not drawn) [Compound 19] |
| – | – | – | – | 7.9 | – | – | O=C(NO)c1cnc(N2CCN([C@H](/C=C/c3ccc(F)cc3)CO)CC2)nc1 (single isomer, unassigned) [Compound 34] |
| 7.7 | 50.1 | – | – | – | – | – | CCCCN(C)C(=O)C(C)(/C=C/c1ccc(F)cc1)N1CCN(c2ncc(C(=O)NO)cn2)CC1 (stereo not drawn) [Compound 20] |
| – | 12.6 | 2900 (≈ 7.49 mM) | – | – | – | – | O=C(NO)c1cnc(N2CCN(C(/C=C/c3ccc(F)cc3)CO)CC2)nc1 (stereo not drawn) [Compound 8] |
| 9.4 | 10 | 3100 (≈ 8.08 mM) | 212 | – | – | – | COCC(/C=C/c1ccccc1)N1CCN(c2ncc(C(=O)NO)cn2)CC1 (stereo not drawn) [Compound 11] |
| 7.6 | 100 | – | – | – | > 455 | – | O=C(NO)c1cnc(N2CCN(C(/C=C/c3ccccc3)C(=O)NC3CC3)CC2)nc1 (stereo not drawn) [Compound 15] |
| 9.0 | 31.6 | 2100 (≈ 5.48 mM) | – | – | – | – | Cc1ccc(/C=C/C(CO)N2CCN(c3ncc(C(=O)NO)cn3)CC2)cc1 (stereo not drawn) [Compound 12] |
| 9.4 | 25.1 | – | 161 | – | – | – | CC(=O)OCC(/C=C/c1ccccc1)N1CCN(c2ncc(C(=O)NO)cn2)CC1 (stereo not drawn) [Compound 9] |
| 7.4 | 316 | – | – | – | > 455 | – | O=C(NO)c1cnc(N2CCN(C(/C=C/c3ccc(Cl)cc3)CN3CCOCC3)CC2)nc1 (stereo not drawn) [Compound 2] |
| >9 | 31.6 | 2000 (≈ 5.66 mM) | 161 | – | – | – | CC(/C=C/c1ccccc1)N1CCN(c2ncc(C(=O)NO)cn2)CC1 (stereo not drawn) [Compound 7] |
| >9 | < 31.6 | – | – | – | – | – | COCC(/C=C/c1ccc(F)cc1)N1CCN(c2ncc(C(=O)NO)cn2)CC1 (stereo not drawn) [Compound 32] |
| – | – | – | 135 | – | – | – | O=C(NO)c1cnc(N2CCN(C(/C=C/c3ccc(Cl)cc3)CN3CCOCC3)CC2)nc1 (stereo not drawn) (hydrate or solvate) [Compound 2] |
| – | – | – | – | 7.5 | – | – | O=C(NO)c1cnc(N2CCN([C@H](/C=C/c3ccc(F)cc3)CO)CC2)nc1 (single isomer, unassigned) [Compound 28] |
| 7.9 | 158 | 2100 (≈ 4.79 mM) | – | – | – | – | O=C(NO)c1cnc(N2CCN(C(/C=C/c3ccccc3)CN3CCOCC3)CC2)nc1 (stereo not drawn) [Compound 21] |
| 8.8 | 31.6 | 4000 (≈ 10.1 mM) | – | – | – | – | CCOCC(/C=C/c1ccccc1)N1CCN(c2ncc(C(=O)NO)cn2)CC1 (stereo not drawn) [Compound 24] |
| 9.6 | – | – | – | 7.8 | – | – | CC(/C=C/c1ccccc1)N1CCN(c2ncc(C(=O)NO)cn2)CC1 (stereo not drawn) [Compound 35] |

| SMILES | Enzymatic activity pIC50 C.1. [1] | IC50 [2] [nM] | solubility [3] [µg/mL] | melting point [°C] | Cellular activity pIC50 C.2. [2] | solubility [4] [µM] | Solubility C.3.b. pH = 2.3 mg/ml [3] [mg/ml] |
| --- | --- | --- | --- | --- | --- | --- | --- |
| O=C(NO)c1ccc(N2CCN(C(/C=C/c3ccc(F)cc3)CO)CC2)nc1 (stereo not drawn) [Compound 31] | 8.5 | 39.8 | – | 145 | – | – | – |
